Experimental data from patent US20240245677A1, “SELECTED COMPOUNDS FOR TARGETED DEGRADATION OF BRD9” (C4 THERAPEUTICS, INC., priority 2021, published 2024).

How the values were obtained:
[1] = in vitro; settings: plasma; for % Bound / % Remaining at 3 hours: 3 h, 2 µM
Description: Plasma protein binding (PPB) of Compound 1 was evaluated in plasma from mice, rats, dogs, cynomolgus monkeys, and humans using ultracentrifugation.
Frozen plasma from CD-1 mice, Sprague-Dawley rats, beagle dogs, cynomolgus monkeys, and humans was purchased and stored at ≤−30° C. On the day of study, plasma samples of CD-1 mice, Sprague-Dawley rats, beagle dogs, cynomolgus monkeys and humans were thawed under running cold tap water and centrifuged to remove any particulates.
For the internal standard, telmisartan, a 1 mg/mL solution was prepared by dissolving 1.4 mg of telmisartan in 1.4 mL of DMSO, and stored at 4° C.
The 10 mM stock solution of each test compound was used to prepare 400 μM intermediate stocks in methanol. Then, a 2 μM working stock of each test compound was prepared for plasma from each species (mouse, rat, dog, monkey, and human) by spiking 12 μL of the 400 μM intermediate stock for each test compound into 2400 μL of thawed and prepared plasma from a test species.
400 μL of blank plasma for each species was transferred to a 0.5 mL Beckman tube (Part No. 343776, Beckman Coulter Life Sciences, Indianapolis, IN, USA) and centrifuged for 3 hours at 627000×g at 37° C. The supernatant was removed and kept at room temperature.
To prepare for ultracentrifugation, the rotor of the centrifuge was placed into an incubator and warmed up to 37° C. before centrifugation. The vacuum switch of the OPTIMA™ MAX-TL Ultracentrifuge (Beckman Coulter Life Sciences, Indianapolis, IN, USA) was turned on and the vacuum was reduced to less than 10 microns to warm up the system. The ultracentrifuge's parameters were set to the following: Temperature—37° C.; Time—3 hours; and Speed—627000×g. For each species and each test compound, 2.4 mL of working stock was mixed and pre-incubated for 45 minutes at 37° C. Then, 60 μL was separated and precipitated with 200 μL of acetonitrile containing internal standard and labeled as (TO), and 0.4 mL (triplicates) were transferred to Beckman 2 mL tubes (Part No. 344625, Beckman Coulter Life Sciences, Indiana, IN, USA).
For each species and each test compound, the triplicate 0.4 mL sample tubes were centrifuged for 3 hours at 627000×g at 37° C. […] At 45 minutes, 60 μL was separated, precipitated with 200 μL of acetonitrile containing internal standard and labelled as (T45). After completion of 3 hours, 60 μL of incubated samples were separated, precipitated with acetonitrile containing internal standard, and labeled as (T3).
After completing the 3 hours of centrifugation, 30 μl of the top fraction of supernatant from each sample tube was removed (free fraction) and precipitated with acetonitrile containing internal standard (labeled as top sample).
After removing 30 μL of the top fraction, remaining top and bottom layer were mixed thoroughly to make a uniform mixture. From this mixture, 30 μL of bottom sample was collected and precipitated with acetonitrile containing internal standard (labelled as bottom sample).
Matrix matching was done for crashed stability samples (TO, T45 and T3 samples) by adding 30 μL of a 50:50 mixture of blank plasma supernatant and phosphate-buffered saline (PBS), and for top and bottom samples, by adding 30 μL of blank plasma (kept at room temperature).
All the stability samples and centrifuged samples were vortexed at 1000 rpm for 5 minutes and centrifuged at 4000 rpm for 10 minutes. Supernatant from each sample was separated, diluted 2-fold with water, and analyzed in LC-MS/MS.
Samples (supernatant-free fraction and total plasma) were analyzed by LCMS-MS (no standards).

[2] = Crystallization by addition of anti-solvent; format: physicochemical; settings: for Comments: form after seeding: add Pattern G as seeds, slurry for 5 days
Description: Based on approximate solubility results, about 20 mg of Compound 1 free form Pattern E was dissolved in the minimal amount of good solvent. Anti-solvent was added into the obtained solutions slowly. Precipitates were collected by centrifuged. The solid part (wet cake) were investigated by XRPD.

COc1cc(-c2cn(C)c(=O)c(C)c2C)cc(OC)c1CN1CC[C@H](N2CCN(c3ccc(N[C@H]4CCC(=O)NC4=O)cc3F)CC2)C(F)(F)C1 [Compound 1, (S)-3-((4-(4-((S)-1-(2,6-dimethoxy-4-(1,4,5-trimethyl-6-oxo-1,6-dihydropyridin-3-yl)benzyl)-3,3-difluoropiperidin-4-yl)piperazin-1-yl)-3-fluorophenyl)amino)-piperidine-2,6-dione]
fraction unbound at 3 h, 2 µM ([1]; CD-1, mouse): 0.0339
% Bound ([1]; CD-1, mouse): 96.61%
% Remaining at 3 hours ([1]; CD-1, mouse): 84.69%
fraction unbound at 3 h, 2 µM ([1]; Sprague-Dawley, rat): 0.0971
% Bound ([1]; Sprague-Dawley, rat): 90.29%
% Remaining at 3 hours ([1]; Sprague-Dawley, rat): 88.73%
fraction unbound at 3 h, 2 µM ([1]; beagle, dog): 0.0646
% Bound ([1]; beagle, dog): 93.54%
% Remaining at 3 hours ([1]; beagle, dog): 99.38%
fraction unbound at 3 h, 2 µM ([1]; human): 0.067
% Remaining at 3 hours ([1]; human): 66.87%
fraction unbound at 3 h, 2 µM ([1]; monkey): 0.0514
% Bound ([1]; monkey): 94.86%
% Remaining at 3 hours ([1]; monkey): 99.14%
Comments: form after seeding ([2]; 2-MeTHF/110, Heptane/200): for 5 days: Pattern G
Comments: form after seeding ([2]; DCM/200, Heptane/400): Pattern F
Comments: form after seeding ([2]; THF/40, Heptane/160): for 5 days: Pattern G
XRPD ([2]; solvent 1,4-dioxane/200, anti-solvent Heptane/400): Pattern F
Comments ([2]; solvent 2-MeTHF/200, anti-solvent MTBE/200): Oil-like sample
XRPD ([2]; solvent DCM/200, anti-solvent MTBE/400): Pattern F
